Reference: the NIST ThermoML archive (doi:10.1016/j.jct.2012.10.028)
± gives the expanded uncertainty stated by the source.

Columns and labels:
[1] = refractive index (Na D-line) (dimensionless); conditions: 298.2 K; 101.33 kPa; Liquid; Standard Abbe refractometry
[2] = 101.33 kPa, Liquid, Vibrating tube method

| refractive index [1] | mass density ([2]; 298.2 K) [kg/m3] | mass density ([2]; 293.15 K) [kg/m3] | SMILES |
| --- | --- | --- | --- |
| 1.4293 ± 0.0005 | 830.57 ± 0.31 |  | CCCCC(CC)CO (centres undefined) [2-ethyl-1-hexanol] |
| 1.3878 ± 0.0005 |  | 866.58 ± 0.31 | CC(=O)OCC(C)C [2-methylpropyl ethanoate] |

The next lines start with the molecule.

| SMILES | refractive index [1] | mass density ([2]; 298.2 K) [kg/m3] | mass density ([2]; 293.15 K) [kg/m3] |
| --- | --- | --- | --- |
| CCCCCCCCO [octan-1-ol] | 1.427 ± 0.0005 | 824.1 ± 0.31 |  |
| O=C1CCCCC1 [cyclohexanone] | 1.4503 ± 0.0005 | 943.04 ± 0.32 |  |
| O [water] | 1.3325 ± 0.0005 |  |  |
